In patent US5958952A, “Substituted phenylamindines, medicaments containing these compounds and process for producing them” (Dr. Karl Thomae GmbH, priority 1995, dated 1999) one finds IC50 and EC50 data, which are given here for two compounds.

Structures are written as SMILES.

One experiment deals with human thrombocytes. Description: Inhibiting the binding of ^3 H-BIBU 52 to human thrombocytes. The settings on record: human thrombocytes in plasma; ^3 H-BIBU 52 final concentration 5 nM; ambient temperature, 20 minutes; read-out: ^3 H-BIBU-52-binding test IC50. Here is the method:
1. Inhibiting the Binding of ^3 H-BIBU 52 to Human Thrombocytes:
A suspension of human thrombocytes in plasma is incubated with ^3 H-BIBU 52 [=(3S,5S)-5-[(4'-amidino-4-biphenylyl)oxymethyl]-3-[(carboxy)methyl]-2-pyrrolidinone[3-^3 H-4-biphenylyl]], replacing the ligand ^125 I-fibrinogen known from the literature, (cf. DE-A-4,214.245) and various concentrations of the substance to be tested. The free and bound ligand is separated off by centrifuging and quantitatively determined by scintillation counting. From the results obtained, the inhibition of ^3 H-BIBU 52 binding by the test substance is determined.
In order to do this, donor blood is taken from an anticubital vein and anticoagulated with trisodium citrate (final concentration 13 mM). The blood is centrifuged for 10 minutes at 170×g and the supernatant platelet-rich plasma (PRP) is removed. The residual blood is sharply centrifuged off once more in order to obtain plasma. The PRP is diluted 1:10 with autologous plasma. 750 μl are incubated with 50 μl of physiological saline, 100 μl of test substance solution, 50 μl of ^14 C sucrose (3.700 Bq) and 50 μl of ^3 H-BIBU 52 (final concentration: 5 nM) at ambient temperature for 20 minutes. […] 100 μl of it are measured in order to determine the free ligand. The pellet is dissolved in 500 μl of 0.2N NaOH, 450 μl are mixed with 2 ml of scintillator and 25 μl of 5N HCl and measured. […]

The test system of the next experiment is thrombocyte aggregation. Nature of the experiment: Antithrombotic activity: inhibition of collagen-induced platelet (thrombocyte) aggregation in platelet-rich plasma. The conditions noted are these: Homo sapiens, 10 min, platelet-rich plasma from healthy test subjects, incubated with substance at 37° C. for 10 minutes, 50% change in optical density. It counts as cell-based. Here is the method: 2. Antithrombotic Activity:
The thrombocyte aggregation is measured by the Born and Cross method (J. Physiol. 170, 397 (1964)) in platelet-rich plasma from healthy test subjects. To inhibit clotting, the blood is mixed with 3.14% sodium citrate in a ratio by volume of 1:10.
Collagen-Induced Aggregation
The progress of the decrease in optical density of the platelet suspension is measured photometrically after the addition of the aggregation-triggering substance and recorded. The rate of aggregation is calculated from the angle of inclination of the density curve. The point on the curve at which there is greatest light permeability is used to calculate the optical density.
The quantity of collagen is selected to be as small as possible but still sufficient to produce an irreversible reaction curve. The standard commercial collagen made by Hormonchemie of Munich is used.
Before the collagen is added, the plasma is incubated with the substance at 37° C. for 10 minutes.
From the measurements obtained, an EC50 was determined graphically corresponding to a 50% change in the optical density in terms of inhibiting aggregation.

For `N=C(N)c1ccc(NC(=O)CCN2CCC(CC(=O)O)CC2)cc1` [1(1), 1-[2-[(4-amidinophenyl)aminocarbonyl]ethyl]-4-carboxymethyl-piperidine], the IC50 on human thrombocytes was 0.051 µM. For the same compound, in the experiment on thrombocyte aggregation, the midpoint of the response, the EC50, lay at 0.31 µM.
As to `N=C(N)c1ccc(NC(=O)CCC2CCN(CC(=O)O)CC2)cc1` [Example 1, 4-[2-[(4-amidinophenyl)aminocarbonyl]ethyl]-1-carboxymethyl-piperidine], the IC50 on human thrombocytes was found to be 0.0037 µM. This compound returned an EC50 in the experiment on thrombocyte aggregation of 0.037 µM.
